Reference: patent publication US8617906B2, “Identification and screening of triptolide target molecules” (priority 2004, dated 2013)

System: Phosphatidyl Inositol 3 Kinase—Class II (PG776)
Test: Isolation of proteins binding 3H-triptolide in Jurkat cells
Parameters: species or system human
Conditions: 3H-labeled Jurkat cell extract
Procedure: Triptolide target molecules were isolated and identified by purification and identification of molecules that bind ^3H-triptolide. Jurkat cells from expanding cultures were labeled with ^3H-triptolide by cultivation at 37° C. with 5% CO2 for a period of time between a few hours and overnight (usually 6-7 hours) and harvested by centrifugation and washing in ice-cold phosphate buffered saline. The cells (usually 1-3×10^6/ml) were generally labeled with ^3H-triptolide to a final concentration of 35 nM (100 μCi/200 ml of medium). Collected cell pellets were pooled, and the cells were either extracted and subjected to separation and purification at that time, or were frozen and stored at −20° C. as pellets for extraction and investigation at a later time.
The cells were extracted with M-per buffer (Pierce) and homogenized in presence of a protease inhibitor cocktail, sometimes including other reagents such as deoxyribonuclease (DNase). […] When the extracts components were found not to be sufficiently purified, enriched or reduced in number, 2D gel electrophoresis was employed, followed by fluorography for ^3H-associated radioactivity detection, and MALDI/MS of the corresponding peptides (after proteolysis) and peptide fingerprinting. […]

CC(C)[C@]12O[C@H]1[C@@H]1O[C@]13[C@]1(O[C@H]1C[C@H]1C4=C(CC[C@@]13C)C(=O)OC4)[C@@H]2O [triptolide]
3H-associated protein identified as triptolide target: PI 3 Kinase Class II: identification
